Experiments:
[1] = test system: ApoB secretion, HepG2 cells; assay: Quantification of the secretion of ApoB (HepG2 cells, immunoprecipitation, scintillation counting); type: cell-based; settings: 24 hours of incubation; for IC50: Homo sapiens, HepG2, 24 h
Procedure, shortened: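 HepG2 cells in MEM Rega 3 with 10% FCS were treated at 70% confluency with compound (DMSO 0.4% final) for 24 h. Medium ApoB was immunoprecipitated with sheep anti-apoB then rabbit anti-sheep antibody (24 h each, 8° C), and pellet radioactivity was counted by liquid scintillation to give IC50.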

MTP = MTP (Homo sapiens, UniProt P55157); assay: MTP assay (triglyceride transfer from donor to acceptor vesicles); type: biochemical; settings: MTP activity, 37° C.
Description: MTP activity was measured using an assay similar to one described by J. R. Wetterau and D. B. Zilversmit in Chemistry and Physics of Lipids (1985) 38, 205-222. In order to prepare the donor and acceptor vesicles, the appropriate lipids in chloroform were put into a glass test tube and dried under a stream of nitrogen. A buffer containing 15 mM Tris-HCl (pH 7.5), 1 mM ethylenediamine tetra-acetic acid, 40 mM NaCl, 0.02% NaN3 (assay buffer) was added to the dried lipid. The mixture was vortexed briefly and the lipids were then allowed to hydrate for 20 minutes on ice. Vesicles were then prepared by bath sonication (using a Branson 2200 device) at room temperature for at most 15 minutes. Butylated hydroxytoluene was included in all vesicle preparations at a concentration of 0.1%. The lipid transfer assay mixture contained donor vesicles (40 nmole phosphatidylcholine, 7.5 mole % cardiolipin and 0.25 mole % glycerol tri[1-^14C]-oleate), acceptor vesicles (240 nmol phosphatidylcholine) and 5 mg bovine serum albumin in a total volume of 675 μl in a 1.5 ml microcentrifuge tube. Test compounds were added dissolved in dimethylsulfoxide (0.13% final concentration). After 5 minutes of pre-incubation at 37° C., the reaction was started by the addition of MTP in 100 μl of a dialysis buffer. The reaction was stopped by the addition of 400 μl […] (DEAE)-52 cellulose (Sephadex) pre-equilibrated in 15 mM Tris-HCl (pH 7.5), 1 mM ethylenediamine tetra-acetic acid and 0.02% NaN3 (1:1 volume/volume). The mixture was agitated for 4 minutes and centrifuged for 2 minutes at maximum speed in an Eppendorf centrifuge (4° C.) to pellet the DEAE-52-bound donor vesicles. An aliquot of the supernatant containing the acceptor liposomes was counted and the [^14C]-counts were used to calculate the percent triglyceride transfer from donor to acceptor vesicles.
Resulting IC50 values are enumerated in Table C.2 for some of the above-referred compounds.

MTP, sequence (P55157 19-894, species assumed): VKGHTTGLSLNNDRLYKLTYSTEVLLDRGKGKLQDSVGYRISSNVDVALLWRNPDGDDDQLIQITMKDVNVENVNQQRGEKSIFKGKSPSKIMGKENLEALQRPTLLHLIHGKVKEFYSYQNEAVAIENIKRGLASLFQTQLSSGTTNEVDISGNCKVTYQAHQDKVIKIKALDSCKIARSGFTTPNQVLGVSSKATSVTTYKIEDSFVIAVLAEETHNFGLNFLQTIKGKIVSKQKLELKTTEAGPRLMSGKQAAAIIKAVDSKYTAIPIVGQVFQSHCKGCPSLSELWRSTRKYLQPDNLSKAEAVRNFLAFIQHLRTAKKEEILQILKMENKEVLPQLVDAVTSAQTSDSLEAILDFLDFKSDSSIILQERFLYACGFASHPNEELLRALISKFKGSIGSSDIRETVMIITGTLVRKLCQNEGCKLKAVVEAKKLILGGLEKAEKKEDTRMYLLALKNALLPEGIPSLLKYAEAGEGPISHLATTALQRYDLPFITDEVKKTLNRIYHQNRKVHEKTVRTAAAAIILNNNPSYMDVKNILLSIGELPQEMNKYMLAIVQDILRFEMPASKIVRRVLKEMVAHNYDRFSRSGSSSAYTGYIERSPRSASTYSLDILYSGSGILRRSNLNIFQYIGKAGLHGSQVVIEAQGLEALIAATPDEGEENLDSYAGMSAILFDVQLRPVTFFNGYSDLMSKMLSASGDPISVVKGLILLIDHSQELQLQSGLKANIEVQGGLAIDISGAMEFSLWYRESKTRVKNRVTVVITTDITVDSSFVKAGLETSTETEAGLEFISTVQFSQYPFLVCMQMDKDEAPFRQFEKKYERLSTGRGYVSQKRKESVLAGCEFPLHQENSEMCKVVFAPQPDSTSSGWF
MTP, sequence (P07237 18-508 partner, species assumed): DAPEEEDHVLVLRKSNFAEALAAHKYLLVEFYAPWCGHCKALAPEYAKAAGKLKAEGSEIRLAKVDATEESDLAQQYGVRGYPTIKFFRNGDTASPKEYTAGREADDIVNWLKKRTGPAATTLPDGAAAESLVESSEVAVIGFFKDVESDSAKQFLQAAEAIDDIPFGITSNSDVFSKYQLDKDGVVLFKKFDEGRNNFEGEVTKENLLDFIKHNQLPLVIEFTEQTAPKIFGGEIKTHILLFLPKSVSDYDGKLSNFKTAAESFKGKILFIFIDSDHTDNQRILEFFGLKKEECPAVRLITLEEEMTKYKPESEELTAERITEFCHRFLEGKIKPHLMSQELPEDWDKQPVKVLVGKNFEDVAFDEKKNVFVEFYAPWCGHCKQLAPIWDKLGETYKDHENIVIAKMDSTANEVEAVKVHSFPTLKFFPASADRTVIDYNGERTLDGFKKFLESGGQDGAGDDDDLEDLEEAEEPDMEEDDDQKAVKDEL

| SMILES | IC50 [1] [nM] | IC50 (MTP) [nM] | other results |
| --- | --- | --- | --- |
| O=C(Nc1ccc(N2CCN(C(C(=O)NCc3ccccn3)c3ccccc3)CC2)cc1)c1ccccc1-c1ccc(C(F)(F)F)cc1 (stereo not drawn) [Co. No. 60] | ≤ 30 | 8.28 | – |
| COC(=O)C(c1ccccc1)N1CCN(c2ccc(NC(=O)c3ccccc3-c3ccccc3)cc2)CC1 (stereo not drawn) [Co. No. 52, methyl 4-[4-[([1,1′-biphenyl]-2-ylcarbonyl)amino]phenyl]-α-phenyl-1-piperazineacetate] | 294 | – | melting point: 125 °C |
| CC(C)CNC(=O)C(c1ccccc1)N1CCN(c2ccc(NC(=O)c3ccccc3-c3ccc(C(F)(F)F)cc3)cc2)CC1 (stereo not drawn) [Co. No. 58] | ≤ 30 | 15.9 | – |
| CCOC(=O)C(c1ccccc1)N1CCC(c2ccc(NC(=O)c3ccccc3-c3ccc(C(F)(F)F)cc3)cc2)CC1 (stereo not drawn) [Co. No. 222] | 19.2 | 8.41 | – |
| O=C(Nc1ccc(N2CCC(C(C(=O)NCc3ccccc3)c3ccccc3)CC2)cc1)c1ccccc1-c1ccc(C(F)(F)F)cc1 (stereo not drawn) [Co. No. 11] | 4.62 | 7.31 | – |
| COC(=O)C(c1ccccc1)N1CCN(c2ccc(NC(=O)c3ccccc3-c3ccsc3)cc2)CC1 (stereo not drawn) [Co. No. 267] | – | – | melting point: 150 °C |
| COC(=O)C(c1ccccc1)C1CCN(c2ccc(NC(=O)c3ccccc3-c3ccc(C(C)(C)C)cc3)cc2)CC1 (stereo not drawn) [Co. No. 203] | – | 2.08 | pIC50 ([1]; listed as 203): 8.333 |
| CCCNC(=O)C(c1ccccc1)C1CCN(c2ccc(NC(=O)c3ccccc3CSc3ccccc3)cc2)CC1 (stereo not drawn) [Co. No. 16] | 83.8 | 208 | – |
| CCOC(=O)C(CN1CCN(c2ccc(NC(=O)c3ccccc3-c3ccc(C(F)(F)F)cc3)cc2)CC1)c1ccccc1 (stereo not drawn) [Co. No. 81, ethylphenyl-4-[4-[[[4′-(trifluoromethyl)[1,1′-biphenyl]-2-yl]carbonyl]amino]-phenyl]-1-piperazine propanoate] | 178 | – | melting point: 195 °C |
| O=C(Nc1ccc(N2CCC(C(C(=O)NCc3ccccc3)c3ccccc3)CC2)cc1)c1ccccc1COc1ccccc1 (stereo not drawn) [Co. No. 7] | 261 | 363 | – |
| COC(=O)C(c1ccccc1)C1CCN(c2ccc(NC(=O)c3ccccc3-c3ccc(C(F)(F)F)cc3)cc2)CC1 (stereo not drawn) [Co. No. 39, methyl α-phenyl-1-[4-[[[4′-(trifluoromethyl)-[1,1′-biphenyl]-2-yl]carbonyl]amino]phenyl]-4-piperidineacetate] | – | 12 | pIC50 ([1]; listed as 39): 7.791; melting point: 151 °C |
| CCCCCNC(=O)C(c1ccccc1)N1CCC(c2ccc(NC(=O)c3ccccc3-c3ccc(C(F)(F)F)cc3)cc2)CC1 (stereo not drawn) [Co. No. 75] | 11.4 | 8.38 | – |
| CCOC(=O)C(c1ccccc1)N1CCC(c2ccc(NC(=O)c3ccccc3-c3ccc(C(F)(F)F)cc3)cc2)CC1 (single isomer, unassigned) [Co. No. 264] | – | 31.8 | – |
| COC(=O)C(c1ccccc1)N1CCN(c2ccc(NC(=O)c3ccccc3-c3cccnc3)cc2)CC1 (stereo not drawn) [Co. No. 270] | – | – | melting point: 194 °C |
| C=CCNC(=O)C(c1ccccc1)N1CCN(c2ccc(NC(=O)c3ccccc3-c3ccc(C(F)(F)F)cc3)cc2)CC1 (stereo not drawn) [Co. No. 57] | 7.57 | 6.87 | – |
| O=C(Nc1ccc(N2CCN(C(C(=O)NCc3ccccc3)c3ccccc3)CC2)cc1)c1ccccc1-c1ccc(C(F)(F)F)cc1 (stereo not drawn) [Co. No. 61] | 3.85 | 4.79 | – |
| O=C(Nc1ccc(N2CCC(C(C(=O)NCc3ccccc3)c3ccccc3)CC2)cc1)c1ccccc1CSc1ccccc1 (stereo not drawn) [Co. No. 6] | 108 | 198 | – |
| CCNC(=O)C(c1ccccc1)N1CCN(c2ccc(NC(=O)c3ccccc3-c3ccc(C(F)(F)F)cc3)cc2)CC1 (stereo not drawn) [Co. No. 54, N-[4-[4-[2-(ethylamino)-2-oxo-1-phenylethyl]-1-piperazinyl]phenyl]-4′-(trifluoromethyl)-[1,1′-biphenyl]-2-carboxamide] | 7.89 | 5.38 | melting point: 123 °C |
| CCNC(=O)C(c1ccccc1)N1CCN(c2ccc(NC(=O)c3cccc(C)c3-c3ccc(C(F)(F)F)cc3)cc2)CC1 (stereo not drawn) [Co. No. 199] | – | 4.63 | – |
| COC(=O)C(c1ccccc1)N1CCC(c2ccc(NC(=O)c3ccccc3-c3ccc(C(F)(F)F)cc3)cc2)CC1 (stereo not drawn) [Co. No. 41, methylphenyl-4-[4-[[[4′-(trifluoromethyl)[1,1′-biphenyl]-2-yl]carbonyl]amino]phenyl]-1-piperidineacetate] | 21.6 | 8.65 | melting point: 138 °C |

| SMILES | IC50 [1] [nM] | IC50 (MTP) [nM] | other results |
| --- | --- | --- | --- |
| CCOC(=O)C(c1ccccc1)N1CCC(c2ccc(NC(=O)c3ccccc3-c3ccc(C(F)(F)F)cc3)cc2)CC1 (single isomer, unassigned) [Co. No. 265] | – | 5.62 | – |
| CCCNC(=O)C(c1ccccc1)N1CCN(c2ccc(NC(=O)c3ccccc3-c3ccc(C(F)(F)F)cc3)cc2)CC1 (stereo not drawn) [Co. No. 55] | ≤ 30 | 4.27 | – |
| O=C(Nc1ccc(N2CCC(C(C(=O)NCc3ccccc3)c3ccccc3)CC2)cc1)c1ccccc1Cc1ccccc1 (stereo not drawn) [Co. No. 10] | 241 | > 3000 | – |
| COC(=O)C(c1ccccc1)C1CCN(c2ccc(NC(=O)c3ccccc3-c3ccc(C(C)C)cc3)cc2)CC1 (stereo not drawn) [Co. No. 232] | < 30 | 25 | – |
| O=C(Nc1ccc(N2CCC(C(C(=O)NCc3ccccc3)c3ccccc3)CC2)cc1)c1cccc2c1-c1ccccc1C2 (stereo not drawn) [Co. No. 2] | 106 | – | melting point: 202 °C |
| CCNC(=O)C(c1ccccc1)C1CCN(c2ccc(NC(=O)c3ccccc3-c3ccc(C(C)(C)C)cc3)cc2)CC1 (stereo not drawn) [Co. No. 87] | 2.05 | 3.2 | – |
| COC(=O)C(c1ccccc1)N1CCN(c2ccc(NC(=O)c3ccccc3-c3ccc(C(F)(F)F)cc3)cc2)CC1 (stereo not drawn) [Co. No. 239] | – | 1.98 | pIC50 ([1]; listed as 239): 7.855 |
| COC(=O)C(c1ccccc1)C1CCN(c2ccc(NC(=O)c3ccccc3-c3ccc(C(F)(F)F)cc3)cc2)CC1 (stereo not drawn) [Co. No. 241] | – | 10.4 | pIC50 ([1]; listed as 241): 7.578 |
| COC(=O)C(c1ccccc1)N1CCN(c2ccc(NC(=O)c3ccccc3-c3ccc(C(F)(F)F)cc3)cc2)CC1 (stereo not drawn) [Co. No. 40, methyl α-phenyl-4-[4-[[[4′-(trifluoromethyl)[1,1′-biphenyl]-2-yl]carbonyl]amino]phenyl]-1-piperazineacetate] | – | 4.53 | pIC50 ([1]; listed as 40): 7.586 |
| O=C(Nc1ccc(N2CCC(C(C(=O)NCc3ccccc3)c3ccccc3)CC2)cc1)c1ccccc1-c1ccccc1 (stereo not drawn) [Co. No. 3] | 25.6 | 18.4 | – |
| CCCOC(=O)C(c1ccccc1)N1CCN(c2ccc(NC(=O)c3ccccc3-c3ccc(C(F)(F)F)cc3)cc2)CC1 (stereo not drawn) [Co. No. 62, propyl-phenyl-4-[4-[[[4′-(trifluoromethyl)[1,1′-biphenyl]-2-yl]carbonyl]amino]phenyl]-1-piperazineacetate] | 64.6 | 10.5 | melting point: 151 °C |
| O=C(Nc1ccc(N2CCN(C(C(=O)NCC(F)(F)F)c3ccccc3)CC2)cc1)c1ccccc1-c1ccc(C(F)(F)F)cc1 (stereo not drawn) [Co. No. 1, N-[4-[4-[2-oxo-1-phenyl-2-[(2,2,2-trifluoroethyl)amino]ethyl]-1-piperazinyl]-phenyl]-4′-(trifluoromethyl)-[1,1′-biphenyl]-2-carboxamide] | 7.89 | 13.7 | melting point: 208 °C |
| COC(=O)C(c1ccccc1)N1CCC(c2ccc(NC(=O)c3ccccc3-c3ccc(C(F)(F)F)cc3)cc2)CC1 (single isomer, unassigned) [Co. No. 229] | – | 52.6 | pIC50 [1]: 7.409; melting point: 158 °C |
| COC(=O)C(c1ccccc1)C1CCN(c2ccc(NC(=O)c3ccccc3-c3ccc(C(F)(F)F)cc3)cc2)CC1 (stereo not drawn) [Co. No. 242] | – | 11.5 | pIC50 ([1]; listed as 242): 8.133 |
| COC(=O)C(c1ccccc1)N1CCC(c2ccc(NC(=O)c3ccccc3-c3ccc(C(F)(F)F)cc3)cc2)CC1 (single isomer, unassigned) [Co. No. 230] | – | 3.64 | pIC50 [1]: 8.31 |
| CCNC(=O)C(c1ccccc1)C1CCN(c2ccc(NC(=O)c3ccccc3-c3cccc4ccccc34)cc2)CC1 (stereo not drawn) [Co. No. 134] | 65.3 | – | – |
| CCNC(=O)C(c1ccccc1)C1CCN(c2ccc(NC(=O)c3ccccc3-c3cc(Cl)cc(Cl)c3)cc2)CC1 (stereo not drawn) [Co. No. 49] | 236 | – | – |
| O=C(Nc1ccc(N2CCC(C(C(=O)Nc3ccccc3)c3ccccc3)CC2)cc1)c1ccccc1OCc1ccccc1 (stereo not drawn) [Co. No. 33] | ≥ 3000 | – | – |
| O=C(Nc1ccc(C2CCN(C(C(=O)Nc3ccccc3)c3ccccc3)CC2)cc1)c1ccccc1-c1ccc(C(F)(F)F)cc1 (stereo not drawn) [Co. No. 80] | 356 | – | – |

— patent publication US8354402B2, “Polyarylcarboxamides useful as lipid lowering agents” (Janssen Pharmaceutica N.V., priority 2000, dated 2013)
